The target in this experiment is T1, estrogen receptor (Homo sapiens, UniProt P03372).
T1 construct: endogenous in cells; host or cells: ECC-1 cells
T1 sequence (P03372 1-595): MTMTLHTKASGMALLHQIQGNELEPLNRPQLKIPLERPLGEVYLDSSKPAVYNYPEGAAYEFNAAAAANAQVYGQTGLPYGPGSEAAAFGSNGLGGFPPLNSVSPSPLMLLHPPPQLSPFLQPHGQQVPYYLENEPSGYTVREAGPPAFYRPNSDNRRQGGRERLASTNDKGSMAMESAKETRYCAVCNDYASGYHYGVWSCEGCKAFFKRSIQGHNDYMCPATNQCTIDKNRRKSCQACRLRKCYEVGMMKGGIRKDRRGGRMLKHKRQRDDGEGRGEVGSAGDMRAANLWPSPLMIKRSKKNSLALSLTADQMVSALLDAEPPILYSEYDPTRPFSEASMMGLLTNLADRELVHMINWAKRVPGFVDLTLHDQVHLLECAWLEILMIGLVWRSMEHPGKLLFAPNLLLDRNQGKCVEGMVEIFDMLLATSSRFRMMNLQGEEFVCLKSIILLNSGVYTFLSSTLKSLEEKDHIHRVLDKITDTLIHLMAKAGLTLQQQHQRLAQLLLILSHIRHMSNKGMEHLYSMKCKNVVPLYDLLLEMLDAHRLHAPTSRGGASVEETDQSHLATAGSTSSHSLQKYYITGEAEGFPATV
Put plainly: Alkaline phosphatase (AP) assay in ECC-1 cells, agonist mode (no E2) and antagonist mode (500 pM E2). Format: cell-based. The conditions noted are these: 3 days, AP activity normalized to 500 pM E2 alone, agonist mode without E2, antagonist mode with 500 pM E2. The method, boiled down: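 ECC-1 cells in hormone-depleted medium treated 3 days with compound alone (agonist mode) or with 500 pM E2 (antagonist mode). Alkaline phosphatase read by p-nitrophenyl phosphate hydrolysis, 40 min at 42° C, A405. Activity normalized to 500 pM E2 alone.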

With `CCN1CCN(c2ccc([C@@H]3c4[nH]c5ccccc5c4C[C@@H](C)N3CC(C)(C)F)s2)CC1` [Example I-74, (1S,3R)-1-[5-(4-ethylpiperazin-1-yl)-2-thienyl]-2-(2-fluoro-2-methyl-propyl)-3-methyl-1,3,4,9-tetrahydropyrido[3,4-b]indole], the “Activity (estrogen receptor modulation, agonism and antagonism)” value was “+ (estrogen receptor agonism having (i) at least 80% increase in the E2-normalized signal in the AP assay (agonist mode) and (ii) no more than 80% reduction in the E2-normalized signal in the AP assay (antagonist mode))”.

Values taken from US20260055103A1, “2,3,4,9-TETRAHYDRO-1H-PYRIDO[3,4-B]INDOLE DERIVATIVES AS ESTROGEN RECEPTOR MODULATORS FOR THE TREATMENT OF CANCER” (Olema Pharmaceuticals, Inc., priority 2022, published 2026).
